In US8288552B2, “Dihydropyridone amidesas P2X7 modulators” (Roche Palo Alto LLC, priority 2008, dated 2012):

These compounds were tested against T1, P2X7 (UniProt Q99572) (assay: P2X7 pKi of Table 1).
T1 sequence (Q99572 1-595): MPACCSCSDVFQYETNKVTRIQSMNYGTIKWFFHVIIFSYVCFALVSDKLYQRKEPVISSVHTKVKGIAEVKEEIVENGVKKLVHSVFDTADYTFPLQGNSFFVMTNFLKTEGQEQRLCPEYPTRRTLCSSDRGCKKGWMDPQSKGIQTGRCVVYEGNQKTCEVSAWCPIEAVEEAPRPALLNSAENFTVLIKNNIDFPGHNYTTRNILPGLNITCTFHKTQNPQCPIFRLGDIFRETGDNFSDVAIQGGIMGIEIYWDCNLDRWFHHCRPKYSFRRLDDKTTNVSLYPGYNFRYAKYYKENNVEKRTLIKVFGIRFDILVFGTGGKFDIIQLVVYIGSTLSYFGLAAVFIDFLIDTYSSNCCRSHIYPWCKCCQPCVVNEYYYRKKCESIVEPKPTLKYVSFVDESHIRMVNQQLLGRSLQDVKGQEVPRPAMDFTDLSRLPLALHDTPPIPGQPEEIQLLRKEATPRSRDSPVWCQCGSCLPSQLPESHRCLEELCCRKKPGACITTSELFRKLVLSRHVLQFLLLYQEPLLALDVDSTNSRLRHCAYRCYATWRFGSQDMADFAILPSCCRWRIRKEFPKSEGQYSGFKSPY
Assay type: cell-based
Protocol: Intracellular Calcium Flux (FLIPR) Assay
Compound and Reagent Preparation
Stock solutions of compounds were prepared from powders as a 10 mM DMSO stock solution. These solutions were stored at RT during the two week period of these experiments to prevent freeze-thaw of the DMSO stocks. The DMSO stocks were added to the appropriate assay buffer at a concentration of 10 μM, and then diluted serially to the final concentrations that were tested. […] The aqueous solutions of compounds as well as ATP (Sigma A7699) and BzATP (Sigma B6396) were prepared fresh for each day of experiment.
1321N1 cells stably expressing the full length human P2X7 gene (1321N1-hP2X7) and HEK293 cells stably expressing the full length rat P2X7 gene (HEK293-rP2X7) were obtained from the Roche Cell Culture Facility. 1321N1-hP2X7 cells were grown in Dulbecco's Modified Eagle's Medium (DMEM) high glucose supplemented with 10% FBS and 250 μg/mL G418. HEK293-rP2X7 cells were grown in DMEM/F-12 supplemented with 10% FBS, 1 mM CaCl2, 2 mM MgCl2, 2 mM L-Glutamine and 500 μg/ml G418. Cells were split such that they never became >70% confluent.
Intracellular Calcium Flux (FLIPR)
On the day prior to the experiment, 1321N1-hP2X7 or HEK293-rP2X7 cells were released into suspension with calcium-free PBS+Versene and washed by centrifugation with calcium-free PBS to remove the Versene. Cells were resuspended in growth medium at a density of 2.5×10^5 cells/mL and seeded into black walled, clear bottom 96 well plates (50,000 cells/well) approximately 18 hr prior to intracellular calcium flux experiments.
On the day of the experiment, plates were washed with FLIPR buffer (calcium- and magnesium-free Hank's Balanced Salt Solution (HBSS) supplemented with 10 mM Hepes, 2.5 mM probenecid and 2 mM calcium chloride) using a BIO-TEK 96 channel plate washer and incubated with […] fluo-3 dye at 37° C. for one hr. The dye was then removed by plate washing and the cells were allowed to equilibrate for 20 min at room temperature with antagonist or vehicle (FLIPR buffer). Agonist (100 μM BzATP final concentration for hP2X7; 5 μM BzATP final concentration or rP2X7) was added online with the FLIPR and fluorescence measurements made at 1 sec intervals for 60 sec followed by 3 sec intervals for a further 4 min (5 min total). A final addition of 5 μM ionomycin was made and the maximal BzATP-evoked fluorescence normalized to the maximal ionomycin-evoked fluorescence.

Row | SMILES | pKi
1 | COc1cc(Br)c(NC(=O)C2=CNC(=O)C[C@H]2c2cccc(F)c2)cc1OC [Compound 30, (S)-4-(3-Fluoro-phenyl)-6-oxo-1,4,5,6-tetrahydro-pyridine-3-carboxylic acid(2-bromo-4,5-dimethoxy-phenyl)-amide] | 8.045
2 | COc1cc(Br)c(NC(=O)C2=CN(C)C(=O)CC2c2ccc(F)cc2)cc1OC (centres unmarked) [Compound 31, 4-(4-Fluoro-phenyl)-1-methyl-6-oxo-1,4,5,6-tetrahydro-pyridine-3-carboxylic acid(2-bromo-4,5-dimethoxy-phenyl)-amide] | 6.525
3 | COc1cc(C)c(NC(=O)C2=CNC(=O)CC2c2ccc(F)cc2)cc1OC (centres unmarked) [Compound 32, 4-(4-Fluoro-phenyl)-6-oxo-1,4,5,6-tetrahydro-pyridine-3-carboxylic acid(4,5-dimethoxy-2-methyl-phenyl)-amide] | 7.98
4 | COc1cc(NC(=O)C2=CNC(=O)C[C@H]2c2cccc(F)c2)c(Br)cc1C [Compound 33, (S)-4-(3-Fluoro-phenyl)-6-oxo-1,4,5,6-tetrahydro-pyridine-3-carboxylic acid(2-bromo-5-methoxy-4-methyl-phenyl)-amide] | 7.195
5 | COc1cc(Br)c(NC(=O)C2=CNC(=O)C[C@@H]2c2cccc(F)c2)cc1OC [Compound 34, (R)-4-(3-Fluoro-phenyl)-6-oxo-1,4,5,6-tetrahydro-pyridine-3-carboxylic acid(2-bromo-4,5-dimethoxy-phenyl)-amide] | 6.9783
6 | COc1cc(NC(=O)C2=CNC(=O)CC2c2cccc(F)c2)c(Br)cc1F (centres unmarked) [Compound 35, 4-(3-Fluoro-phenyl)-6-oxo-1,4,5,6-tetrahydro-pyridine-3-carboxylic acid(2-bromo-4-fluoro-5-methoxy-phenyl)-amide] | 6.65
7 | Cc1ccc(C)c(NC(=O)C2=CNC(=O)CC2c2ccc(F)cc2)c1 (centres unmarked) [Compound 36, 4-(4-Fluoro-phenyl)-6-oxo-1,4,5,6-tetrahydro-pyridine-3-carboxylic acid(2,5-dimethyl-phenyl)-amide] | 6.93
8 | Cc1cccc(NC(=O)C2=CNC(=O)CC2c2ccc(F)cc2)c1C (centres unmarked) [Compound 37, 4-(4-Fluoro-phenyl)-6-oxo-1,4,5,6-tetrahydro-pyridine-3-carboxylic acid(2,3-dimethyl-phenyl)-amide] | 7.12
9 | Cc1ccc(Br)c(NC(=O)C2=CNC(=O)CC2c2ccc(F)cc2)c1 (centres unmarked) [Compound 38, 4-(4-Fluoro-phenyl)-6-oxo-1,4,5,6-tetrahydro-pyridine-3-carboxylic acid(2-bromo-5-methyl-phenyl)-amide] | 6.87
10 | COc1cc(Br)c(NC(=O)C2=CNC(=O)C[C@@H]2c2ccc(F)cc2)cc1OC [Compound 39, (R)-4-(4-Fluoro-phenyl)-6-oxo-1,4,5,6-tetrahydro-pyridine-3-carboxylic acid(2-bromo-4,5-dimethoxy-phenyl)-amide] | 6.99
11 | COc1cc(Br)c(NC(=O)C2=CNC(=O)C[C@H]2c2ccc(F)cc2)cc1OC [Compound 40, (S)-4-(4-Fluoro-phenyl)-6-oxo-1,4,5,6-tetrahydro-pyridine-3-carboxylic acid(2-bromo-4,5-dimethoxy-phenyl)-amide] | 7.895
12 | COc1cc(C)c(NC(=O)C2=CNC(=O)C[C@@H]2c2ccc(F)cc2)cc1OC [Compound 41, (R)-4-(4-Fluoro-phenyl)-6-oxo-1,4,5,6-tetrahydro-pyridine-3-carboxylic acid (4,5-dimethoxy-2-methyl-phenyl)-amide] | 7.225
13 | COc1cc(C)c(NC(=O)C2=CNC(=O)C[C@H]2c2ccc(F)cc2)cc1OC [Compound 42, (S)-4-(4-Fluoro-phenyl)-6-oxo-1,4,5,6-tetrahydro-pyridine-3-carboxylic acid (4,5-dimethoxy-2-methyl-phenyl)-amide] | 7.993
14 | COc1cc(Br)c(NC(=O)C2=CN(C)C(=O)C[C@H]2c2ccc(F)cc2)cc1OC [Compound 44, (S)-4-(4-Fluoro-phenyl)-1-methyl-6-oxo-1,4,5,6-tetrahydro-pyridine-3-carboxylic acid(2-bromo-4,5-dimethoxy-phenyl)-amide] | 5.875
15 | COc1ccc(C)c(NC(=O)C2=CNC(=O)C[C@@H]2c2cccc(F)c2)c1 [Compound 45, (R)-4-(3-Fluoro-phenyl)-6-oxo-1,4,5,6-tetrahydro-pyridine-3-carboxylic acid(5-methoxy-2-methyl-phenyl)-amide] | 6.765
16 | COc1ccc(C)c(NC(=O)C2=CNC(=O)C[C@H]2c2cccc(F)c2)c1 [Compound 46, (S)-4-(3-Fluoro-phenyl)-6-oxo-1,4,5,6-tetrahydro-pyridine-3-carboxylic acid(5-methoxy-2-methyl-phenyl)-amide] | 7.695
17 | COc1cc(C)c(NC(=O)C2=CNC(=O)C[C@H]2c2cccc(F)c2)cc1OC [Compound 48, (S)-4-(3-Fluoro-phenyl)-6-oxo-1,4,5,6-tetrahydro-pyridine-3-carboxylic acid (4,5-dimethoxy-2-methyl-phenyl)-amide] | 7.7225

Next, values leading:

Row | pKi | SMILES
18 | 7.48 | Cc1cc(C)c(Br)c(NC(=O)C2=CNC(=O)CC2c2ccc(F)cc2)c1 (centres unmarked) [Compound 49, 4-(4-Fluoro-phenyl)-6-oxo-1,4,5,6-tetrahydro-pyridine-3-carboxylic acid(2-bromo-3,5-dimethyl-phenyl)-amide]
19 | 6.89 | Cc1ccc(C(F)(F)F)cc1NC(=O)C1=CNC(=O)CC1c1cccc(F)c1 (centres unmarked) [Compound 50, 4-(3-Fluoro-phenyl)-6-oxo-1,4,5,6-tetrahydro-pyridine-3-carboxylic acid(2-methyl-5-trifluoromethyl-phenyl)-amide]
20 | 7.445 | Cc1ccc(C(C)C)cc1NC(=O)C1=CNC(=O)CC1c1cccc(F)c1 (centres unmarked) [Compound 51, 4-(3-Fluoro-phenyl)-6-oxo-1,4,5,6-tetrahydro-pyridine-3-carboxylic acid(5-isopropyl-2-methyl-phenyl)-amide]
21 | 6.02 | CCN(CC)S(=O)(=O)c1ccc(Cl)c(NC(=O)C2=CNC(=O)CC2c2cccc(F)c2)c1 (centres unmarked) [Compound 52, 4-(3-Fluoro-phenyl)-6-oxo-1,4,5,6-tetrahydro-pyridine-3-carboxylic acid(2-chloro-5-diethylsulfamoyl-phenyl)-amide]
22 | 6.83 | O=C1CC(c2cccc(F)c2)C(C(=O)Nc2cccc3c2CCCC3)=CN1 (centres unmarked) [Compound 53, 4-(3-Fluoro-phenyl)-6-oxo-1,4,5,6-tetrahydro-pyridine-3-carboxylic acid(5,6,7,8-tetrahydro-naphthalen-1-yl)-amide]
23 | 7.02 | COc1cc(NC(=O)C2=CNC(=O)CC2c2ccc(F)cc2)c(C)cc1F (centres unmarked) [Compound 54, 4-(4-Fluoro-phenyl)-6-oxo-1,4,5,6-tetrahydro-pyridine-3-carboxylic acid(4-fluoro-5-methoxy-2-methyl-phenyl)-amide]
24 | 7.535 | Cc1ccc(C)c(NC(=O)C2=CNC(=O)C[C@@H]2c2ccc(F)cc2)c1 [Compound 55, (R)-4-(4-Fluoro-phenyl)-6-oxo-1,4,5,6-tetrahydro-pyridine-3-carboxylic acid (2,5-dimethyl-phenyl)-amide]
25 | 6.56 | Cc1ccc(C)c(NC(=O)C2=CNC(=O)C[C@H]2c2ccc(F)cc2)c1 [Compound 56, (S)-4-(4-Fluoro-phenyl)-6-oxo-1,4,5,6-tetrahydro-pyridine-3-carboxylic acid (2,5-dimethyl-phenyl)-amide]
26 | 7.405 | Cc1cccc(NC(=O)C2=CNC(=O)C[C@@H]2c2ccc(F)cc2)c1C [Compound 57, (R)-4-(4-Fluoro-phenyl)-6-oxo-1,4,5,6-tetrahydro-pyridine-3-carboxylic acid (2,3-dimethyl-phenyl)-amide]
